Patent EP2910557A1, “Enantiopure tetrasubstituted pyrrolidines as scaffolds for proteasome inhibitors and medicinal applications thereof” (Ikerchem, S.L., priority 2014, dated 2015)

Columns and labels:
[1] = biological target: T1, Human erythrocyte 20S proteasome (Homo sapiens, UniProt P28074); assay: In vitro enzymatic assay of proteasome inhibitory activity (Suc-Leu-Leu-Val-Tyr-AMC substrate); type: biochemical; settings: for IC50: human erythrocyte 20S proteasome, 10 µM Suc-Leu-Leu-Val-Tyr-AMC, 37°C; for inhibition at 0.05 µM: Concentration 50 nM
T1 construct: Enzyme: Human erythrocyte 20S proteasome; from tissue; host or cells: human erythrocytes
Description: Example 20: In vitro enzymatic assay of proteasome inhibitory activity.
Substrate: Suc-Leu-Leu-Val-Tyr-AMC
Assay buffer: 250 mM HEPES, pH 7.5, 0.5 mM EDTA, 0.03% SDS, 0.05% Igepal CA-630.
Enzyme: Human erythrocyte 20S proteasome
In vitro proteasome inhibitory activity of the compounds of the invention is evaluated by spectrofluorimetric quantitation of AMC. Stock solutions of compounds of the invention are prepared in dimethyl sulphoxide (DMSO). Test compound and/or vehicle is preincubated with […] enzyme (human erythrocyte 20S proteasome) in modified HEPES buffer pH 7.5 and 1% final concentration of DMSO for 15 minutes at 37°C. The reaction is initiated by addition of 10 µM Suc-Leu-Leu-Val-Tyr-AMC for another 30 minutes incubation period at 37°C. Determination of the release of AMC is read spectrophotometrically (excitation, 380 nm; emission, 460 nm). IC50 values are determined by a non-linear, least squares regression analysis using MathlQTM (ID Business Solutions Ltd., UK).

[2] = system: A549; assay: Cancer cell growth inhibition, 72 h treatment; type: cell-based; settings: Homo sapiens
Description: (§1) Cell culture-based assays were used to evaluate the ability of compounds of the invention to inhibit cancer cell growth.
(§2) Cells were obtained from the American Type Culture Collection (ATCC) and the European Collection of Cell Cultures. Cells were thawed in their appropriate media plus supplements (see table below). Cells were passaged at confluence by washing once in HBSS cation-free followed by a 3 minutes incubation with trypsin ([0.5 µg/ml]/EDTA [0.2 µg/ml]) (Gibco-BRL, 15400054) solution in HBSS at 37°C (except non-adherent cell lines - hematologic), and transferred to their appropriate media plus supplements. Prior to seeding at defined cell concentration, cells were recovered in medium, centrifuged, taken up in medium and counted.
(§3) All treatments were performed in triplicate. Experiments were carried out in 96-well cell culture plates (Cultek) and the cell lines seeded at the density mentioned in the table above and cultured at 37°C with 5% CO2. After 24h, media were supplemented by 100 µl/well of diluted test compound at variable final concentrations and incubated for 72 hours. Then, AlamarBlue® Reagent (Biosource DAL1100) was added to each well and incubated at 37°C for 4 hours. Relative fluorescent intensity that correlates with the number of living cells was read in a Cytofluor plate reader (Millipore) at 535/590 nm (Excitation/emission). After reading the AlamarBlue® signal, the hexosaminidase activitity was measured according to the following protocol: medium was removed and cells were washed once with PBS. 60 µl of substrate solution (p-nitrophenol-N-acetyl-beta-D-glucosaminide 7.5 mM [Sigma N-9376], sodium citrate 0.1 M, pH 5.0, 0.25% Triton X-1 00) was added to each well and incubated at 37°C for 1-2 hours; after this incubation time, a bright yellow colour appears; then, plates could be developed by adding 90 µl of developer solution (Glycine 50 mM, pH 10.4; EDTA 5 mM), and absorbance was recorded at 405 nm.
(§4) Note: In all cases assays were performed in Alamar Blue with the exception of those indicated (* = Hexosaminidase assay)

[3] = system: CCRF-CEM; assay: Cancer cell growth inhibition, 72 h treatment; type: cell-based; settings: Homo sapiens, Hematologic CCRF-CEM, Alamar Blue
Description: as §1, §2, §3, §4

[4] = system: DU-145; assay: Cancer cell growth inhibition, 72 h treatment; type: cell-based; settings: Homo sapiens, Prostate cancer DU-145, Alamar Blue
Description: as §1, §2, §3, §4

[5] = system: Daoy; assay: Cancer cell growth inhibition, 72 h treatment; type: cell-based; settings: Homo sapiens, Brain Daoy, Alamar Blue
Description: as §1, §2, §3, §4

[6] = system: HCT-116; assay: Cancer cell growth inhibition, 72 h treatment; type: cell-based; settings: Homo sapiens, Colon cancer HCT-116, Alamar Blue
Description: as §1, §2, §3, §4

[7] = system: HT-1080; assay: Cancer cell growth inhibition, 72 h treatment; type: cell-based; settings: Homo sapiens
Description: as §1, §2, §3, §4

[8] = system: HepG2; assay: Cancer cell growth inhibition, 72 h treatment; type: cell-based; settings: Homo sapiens, Liver cancer HepG2, Alamar Blue
Description: as §1, §2, §3, §4

[9] = system: Jurkat; assay: Cancer cell growth inhibition, 72 h treatment; type: cell-based; settings: Homo sapiens, Hematologic Jurkat, Alamar Blue
Description: as §1, §2, §3, §4

[10] = system: K562; assay: Cancer cell growth inhibition, 72 h treatment; type: cell-based; settings: Homo sapiens, Hematologic K562, Alamar Blue
Description: as §1, §2, §3, §4

[11] = system: LS174T; assay: Cancer cell growth inhibition, 72 h treatment; type: cell-based; settings: Homo sapiens, Colon cancer LS174T, Alamar Blue
Description: as §1, §2, §3, §4

[12] = system: MCF-7; assay: Cancer cell growth inhibition, 72 h treatment; type: cell-based; settings: Homo sapiens, MCF7, Breast cancer MCF-7, Alamar Blue
Description: as §1, §2, §3, §4

[13] = system: MDA-MB-231; assay: Cancer cell growth inhibition, 72 h treatment; type: cell-based; settings: Homo sapiens, Breast cancer MDA-MB-231, Alamar Blue
Description: as §1, §2, §3, §4

[14] = system: MDA-MB-468; assay: Cancer cell growth inhibition, 72 h treatment; type: cell-based; settings: Homo sapiens, Breast cancer MDA-MB-468, Alamar Blue
Description: as §1, §2, §3, §4

[15] = system: MIA PaCa-2; assay: Cancer cell growth inhibition, 72 h treatment; type: cell-based; settings: Homo sapiens, Pancreatic cancer MIA PaCa-2, Alamar Blue
Description: as §1, §2, §3, §4

[16] = system: NCI-H1650; assay: Cancer cell growth inhibition, 72 h treatment; type: cell-based; settings: Homo sapiens
Description: as §1, §2, §3, §4

[17] = system: NCI-H1975; assay: Cancer cell growth inhibition, 72 h treatment; type: cell-based; settings: Homo sapiens
Description: as §1, §2, §3, §4

[18] = system: OVCAR-3; assay: Cancer cell growth inhibition, 72 h treatment; type: cell-based; settings: Homo sapiens
Description: as §1, §2, §3, §4

[19] = system: RPMI-8226; assay: Cancer cell growth inhibition, 72 h treatment; type: cell-based; settings: Homo sapiens, Multiple mieloma RPMI-8226, Alamar Blue
Description: as §1, §2, §3, §4

[20] = system: SK-HEP-1; assay: Cancer cell growth inhibition, 72 h treatment; type: cell-based; settings: Homo sapiens, SK-HEP1, Liver cancer SK-HEP-1, Alamar Blue
Description: as §1, §2, §3, §4

[21] = system: SK-OV-3; assay: Cancer cell growth inhibition, 72 h treatment; type: cell-based; settings: Homo sapiens, Ovarian cancer SK-OV-3, Alamar Blue
Description: as §1, §2, §3, §4

[22] = system: SW480; assay: Cancer cell growth inhibition, 72 h treatment; type: cell-based; settings: Homo sapiens
Description: as §1, §2, §3, §4

[23] = system: U-373 MG; assay: Cancer cell growth inhibition, 72 h treatment; type: cell-based; settings: Homo sapiens, U373 MG, Brain U-373 MG
Description: as §1, §2, §3, §4

[24] = system: U-87 MG; assay: Cancer cell growth inhibition, 72 h treatment; type: cell-based; settings: Homo sapiens, Brain U-87 MG, Hexosaminidase assay (*)
Description: as §1, §2, §3, §4

[25] = Fibrosarcoma HT-1080, Alamar Blue
[26] = Lung cancer NCI-H1650, Alamar Blue
[27] = Lung cancer NCI-H1975, Alamar Blue
[28] = Ovarian cancer OVCAR-3, Alamar Blue
[29] = Colon cancer SW480, Alamar Blue

Row | Structure (SMILES) | IC50 [1] [µM] | EC50 ([2]; Lung cancer A549, Alamar Blue) [µM] | EC50 [3] [µM] | EC50 [4] [µM] | EC50 [5] [µM] | EC50 [6] [µM] | EC50 [7, 25] [µM] | EC50 [8] [µM] | EC50 [9] [µM] | EC50 [10] [µM] | EC50 [11] [µM] | EC50 [12] [µM] | EC50 [13] [µM] | EC50 [14] [µM] | EC50 [15] [µM] | EC50 [16, 26] [µM] | EC50 [19] [µM] | EC50 [20] [µM] | EC50 [21] [µM] | EC50 [24] [µM] | other results
1 | CC(C)C[C@H](NC(=O)[C@@H]1N[C@H](c2ccccc2)[C@@H]([N+](=O)[O-])[C@@H]1c1ccccc1)B(O)O [Example 1, (R)-3-methyl-1-((2R,3R,4S,5R)-4-nitro-3,5-diphenylpyrrolidine-2-carboxamido)butylboronic acid] | 0.039 | 7 | 0.67 | 1.9 | 1.3 | 1.9 | 1.7 | 1.4 | 2.5 | 6.3 | 0.72 | 0.7 | 5.1 | 4.1 | 5.7 | 3.3 | 0.15 | 0.49 | 4.1 | 12 | inhibition at 0.1 µM ([1]; Concentration 100 nM): 73%; EC50 [17, 27]: 25 µM; EC50 [18, 28]: 0.74 µM; EC50 [22, 29]: 1.1 µM; EC50 ([23]; Alamar Blue): 44 µM
2 | CC(C)C[C@H](NC(=O)[C@H]1N[C@@H](c2ccccc2)[C@@H]([N+](=O)[O-])[C@@H]1c1ccccc1)B(O)O [Example 4, (R)-3-methyl-1-((2S,3R,4S,5S)-4-nitro-3,5-diphenylpyrrolidine-2-carboxamido)butylboronic acid] | 0.046 | 4 | 0.33 | 1.2 | 1.3 | 1.3 | 1.7 | 0.38 | 1.7 | 2 | 0.55 | 23 | 2.1 | 0.79 | 3 | 0.79 | 0.27 | 0.29 | 2.2 | 4.2 | inhibition at 0.05 µM [1]: 51%; EC50 [17, 27]: 41 µM; EC50 [18, 28]: 0.89 µM; EC50 [22, 29]: 0.61 µM; EC50 ([23]; Alamar Blue): 7.3 µM
3 | CC(C)C[C@H](NC(=O)[C@@H]1N[C@H](c2ccccc2)[C@@H]([N+](=O)[O-])[C@@H]1c1ccc(F)cc1)B(O)O [Example 6, (R)-1-((2R,3R,4S,5R)-3-(4-fluorophenyl)-4-nitro-5-phenylpyrrolidine-2-carboxamido)-3-methylbutylboronic acid] | 0.017 |  | 0.63 | 3.5 | 3.7 | 2.2 |  | 3.1 | 2 | 15 | 0.6 | 1.9 | 11 | 2.2 | 83 |  | 1.3 | 1.9 | 13 | 12 | inhibition at 0.05 µM [1]: 70%; EC50 ([2]; Lung cancer A549, Hexosaminidase assay (*)): 12 µM; EC50 ([7]; Fibrosarcoma HT-1080, Hexosaminidase assay (*)): 16 µM; EC50 ([16]; Lung cancer NCI-H1650, Hexosaminidase assay (*)): 12 µM; EC50 ([17]; Lung cancer NCI-H1975, Hexosaminidase assay (*)): 7.3 µM; EC50 ([18]; Ovarian cancer OVCAR-3, Hexosaminidase assay (*)): 2.2 µM; EC50 ([22]; Colon cancer SW480, Hexosaminidase assay (*)): 13 µM; EC50 ([23]; Hexosaminidase assay (*)): 17 µM
